Series [1] can be described thus: Pharmacokinetics in mini-pigs after i.v. administration. The following applies: female, Göttingen, minipig, plasma, iv, 5 nmol/kg. The gist of the method:
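Female Göttingen mini-pigs (15-20 kg, N=3) received 5 nmol/kg i.v. via central venous catheter. Plasma levels of N-terminally intact peptide measured by LOCI immunoassay with N-terminal and mid-/C-terminal antibodies; non-compartmental analysis of individual profiles.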

A short description of series [2]: Mechanical stress experiment, Thioflavin T fibrillation assay. The series is classed as physicochemical. The following applies: 45 hour mechanical stress, 37° C., samples A-D. As to the method: In order to determine the physical stability of peptides in solution an accelerated mechanical stress assay was performed. Samples were prepared just before starting the assay. Samples may be prepared in the pH range 3-9 and with peptide concentrations in the range 0-20 mM. Samples may contain buffers such as phosphate, acetate, Tris. Samples may contain antimicrobial preservatives such as phenol or m-cresol.
The pH of the sample was adjusted to the desired value using NaOH and HCl. Thioflavin T was added to the samples from a stock solution in H2O to a final concentration of 5 μM.
Aliquots of each sample were transferred to a 96 well microtiter plate (Packard OptiPlate™-96, white polystyrene) with 200 μL in each well. For each sample data may be recorded for one well or for two or more replicas (two or more wells). […]
Incubation at a selected temperature, mechanical stress and measurement of Thioflavin T fluorescence was performed using a Fluoroskan Ascent FL fluorescence platereader (Thermo Labsystems). […] Fluorescence measurement was performed using excitation through a 444 nm filter and measurement of emission through a 485 nm filter. The fluorescence was measured every 20 minutes during the experiment.
The fluorescence from Thioflavin T was plotted against duration of mechanical stress. A substantial increase in fluorescence from Thioflavin T indicates amyloid fibril formation. […]

`CC[C@H](C)[C@H](NC(=O)[C@H](Cc1ccccc1)NC(=O)[C@H](CCC(=O)O)NC(=O)[C@H](CCCCN)NC(=O)[C@@H](NC(=O)[C@H](C)NC(=O)[C@H](CCC(=O)O)NC(=O)CNC(=O)[C@H](CCC(=O)O)NC(=O)[C@H](CC(C)C)NC(=O)[C@H](Cc1ccc(O)cc1)NC(=O)[C@H](CO)NC(=O)[C@H](CO)NC(=O)[C@@H](NC(=O)[C@H](CC(=O)O)NC(=O)[C@H](CO)NC(=O)[C@@H](NC(=O)[C@H](Cc1ccccc1)NC(=O)[C@@H](NC(=O)CNC(=O)[C@H](CCC(=O)O)NC(=O)C(C)(C)NC(=O)[C@@H](N)Cc1c[nH]cn1)[C@@H](C)O)[C@@H](C)O)C(C)C)C(C)C)C(=O)N[C@@H](C)C(=O)N[C@@H](Cc1c[nH]c2ccccc12)C(=O)N[C@@H](CC(C)C)C(=O)N[C@H](C(=O)N[C@@H](CCC(=O)O)C(=O)N[C@@H](CCCCN)C(=O)NC(C)(C)C(=O)N[C@@H](CCCCN)C(=O)N[C@@H](CCC(=O)O)C(=O)N[C@@H](Cc1ccccc1)C(=O)N[C@@H](CC(C)C)C(N)=O)C(C)C` [Compound 1, [Aib8,Glu23,Val25,Glu34,Lys35,Aib36,Lys37]-GLP-1-(7-37)-peptidyl-Glu-Phe-Leu amide]: in series [1], the C0 amounted to 57.2 nM; the Vd (in general, the apparent volume that relates the amount in the body to the concentration in plasma or blood) stood at 0.16 L/kg; the clearance (as a rule, the rate of elimination divided by the concentration) is 3.3 mL/h/kg. Also, in series [1] (T1/2, mini-pigs), the half-life (usually the time needed for the level to fall by half in the phase considered) is 33.7 h. Also, the half-life in series [1] (T1/2 Mean Value, Göttingen mini-pigs, N=3) is 33.7 h. For the same compound, the “fibril formation (Thioflavin T fluorescence)” value in series [2] was “did not show signs of fibril formation”.

Source of the values: US20150344540A1, “NOVEL GLP-1 RECEPTOR AGONISTS WITH CHOLESTEROL EFFLUX ACTIVITY” (NOVO NORDISK A/S, priority 2012, published 2015).
